According to the supplement of paper PMC10307832:

Columns and labels:
Experiment in all cases: relative viability (nuclei count vs DMSO), 5 days (fraction); higher = more cells survive
A-427 = tested on: A-427
Summary of the method: (§1)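 Lung cancer cell lines were pin-tool dosed in 1536-well plates on the day after seeding, with either a lone drug or a fixed anchor-drug dose plus five library-drug doses (not always all listed) in √10 steps. Nuclei were counted on 4× images after 5 days. Relative viability is the ratio of treated-well to vehicle-well nuclei counts, with each value a median of duplicate plates.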

BEN = tested on: BEN
Summary of the method: as §1

H3255 = tested on: H3255
Summary of the method: as §1

HCC-15 = tested on: HCC-15
Summary of the method: as §1

LC-2-ad = tested on: LC-2-ad
Summary of the method: as §1

LCLC-97TM1 = tested on: LCLC-97TM1
Summary of the method: as §1

NCI-H1395 = tested on: NCI-H1395
Summary of the method: as §1

NCI-H1650 = tested on: NCI-H1650
Summary of the method: as §1

NCI-H1651 = tested on: NCI-H1651
Summary of the method: as §1

NCI-H1755 = tested on: NCI-H1755
Summary of the method: as §1

NCI-H1792 = tested on: NCI-H1792
Summary of the method: as §1

NCI-H1993 = tested on: NCI-H1993
Summary of the method: as §1

NCI-H2009 = tested on: NCI-H2009
Summary of the method: as §1

NCI-H2085 = tested on: NCI-H2085
Summary of the method: as §1

NCI-H23 = tested on: NCI-H23
Summary of the method: as §1

NCI-H520 = tested on: NCI-H520
Summary of the method: as §1

NCI-H647 = tested on: NCI-H647
Summary of the method: as §1

NCI-H650 = tested on: NCI-H650
Summary of the method: as §1

NCI-H661 = tested on: NCI-H661
Summary of the method: as §1

NCI-H727 = tested on: NCI-H727
Summary of the method: as §1

NCI-H838 = tested on: NCI-H838
Summary of the method: as §1

PC-3 [JPC-3] = tested on: PC-3 [JPC-3]
Summary of the method: as §1

RERF-LC-KJ = tested on: RERF-LC-KJ
Summary of the method: as §1

SK-LU-1 = tested on: SK-LU-1
Summary of the method: as §1

SK-MES-1 = tested on: SK-MES-1
Summary of the method: as §1

`Nc1cccc2c1CN(C1CCC(=O)NC1=O)C2=O` (stereo unspecified) [Lenalidomide] + N=C(N)NC(=N)NCCc1ccccc1 [Phenformin] (partner 250 µM) showed a relative viability (A-427; first compound 0.253 µM) of 0.317, a relative viability (A-427; first compound 0.8 µM) of 0.324 and a relative viability (A-427; first compound 2.53 µM) of 0.421. The relative viability (A-427; first compound 8 µM) was 0.311, the relative viability (BEN; first compound 0.253 µM) was 0.287 and the relative viability (BEN; first compound 0.8 µM) was 0.268. It also gave a relative viability (BEN; first compound 2.53 µM) of 0.285, a relative viability (BEN; first compound 8 µM) of 0.222 and a relative viability (H3255; first compound 0.253 µM) of 0.331. For the same compound, the relative viability (H3255; first compound 0.8 µM) was 0.38, the relative viability (H3255; first compound 2.53 µM) was 0.329 and the relative viability (H3255; first compound 8 µM) was 0.386. The relative viability (HCC-15; first compound 0.253 µM) was 0.474, the relative viability (HCC-15; first compound 0.8 µM) was 0.489 and the relative viability (HCC-15; first compound 2.53 µM) was 0.53. For the same compound, the relative viability (HCC-15; first compound 8 µM) was 0.482, the relative viability (LC-2-ad; first compound 0.253 µM) was 0.567 and the relative viability (LC-2-ad; first compound 2.53 µM) was 0.64. For the same compound, the relative viability (LC-2-ad; first compound 8 µM) was 0.585, the relative viability (LCLC-97TM1; first compound 0.253 µM) was 0.378 and the relative viability (LCLC-97TM1; first compound 0.8 µM) was 0.409. It also gave a relative viability (LCLC-97TM1; first compound 2.53 µM) of 0.485, a relative viability (LCLC-97TM1; first compound 8 µM) of 0.365 and a relative viability (NCI-H1395; first compound 0.253 µM) of 0.436. The relative viability (NCI-H1395; first compound 0.8 µM) was 0.403, the relative viability (NCI-H1395; first compound 2.53 µM) was 0.508 and the relative viability (NCI-H1395; first compound 8 µM) was 0.419. The relative viability (NCI-H1650; first compound 0.8 µM) was 0.376, the relative viability (NCI-H1650; first compound 2.53 µM) was 0.554 and the relative viability (NCI-H1650; first compound 8 µM) was 0.483. For the same compound, the relative viability (NCI-H1651; first compound 0.253 µM) was 0.301, the relative viability (NCI-H1651; first compound 0.8 µM) was 0.351 and the relative viability (NCI-H1651; first compound 2.53 µM) was 0.493. For the same compound, the relative viability (NCI-H1651; first compound 8 µM) was 0.337, the relative viability (NCI-H1755; first compound 0.253 µM) was 0.627 and the relative viability (NCI-H1755; first compound 0.8 µM) was 0.615. The relative viability (NCI-H1755; first compound 2.53 µM) was 0.682, the relative viability (NCI-H1755; first compound 8 µM) was 0.536 and the relative viability (NCI-H1792; first compound 0.253 µM) was 0.369. The relative viability (NCI-H1792; first compound 2.53 µM) was 0.574, the relative viability (NCI-H1792; first compound 8 µM) was 0.189 and the relative viability (NCI-H1993; first compound 0.253 µM) was 0.429. It also gave a relative viability (NCI-H1993; first compound 0.8 µM) of 0.553, a relative viability (NCI-H1993; first compound 2.53 µM) of 0.551 and a relative viability (NCI-H1993; first compound 8 µM) of 0.516. It also gave a relative viability (NCI-H2009; first compound 0.253 µM) of 0.454, a relative viability (NCI-H2009; first compound 0.8 µM) of 0.517 and a relative viability (NCI-H2009; first compound 2.53 µM) of 0.518. The relative viability (NCI-H2009; first compound 8 µM) was 0.528, the relative viability (NCI-H2085; first compound 0.253 µM) was 0.604 and the relative viability (NCI-H2085; first compound 0.8 µM) was 0.653. For the same compound, the relative viability (NCI-H2085; first compound 2.53 µM) was 0.827, the relative viability (NCI-H2085; first compound 8 µM) was 0.562 and the relative viability (NCI-H23; first compound 0.253 µM) was 0.733. It also gave a relative viability (NCI-H23; first compound 0.8 µM) of 0.695, a relative viability (NCI-H23; first compound 2.53 µM) of 0.889 and a relative viability (NCI-H23; first compound 8 µM) of 0.729. The relative viability (NCI-H520; first compound 0.253 µM) was 0.579, the relative viability (NCI-H520; first compound 0.8 µM) was 0.481 and the relative viability (NCI-H520; first compound 2.53 µM) was 0.658. The relative viability (NCI-H520; first compound 8 µM) was 0.257, the relative viability (NCI-H647; first compound 0.253 µM) was 0.438 and the relative viability (NCI-H647; first compound 0.8 µM) was 0.487. For the same compound, the relative viability (NCI-H647; first compound 2.53 µM) was 0.703, the relative viability (NCI-H647; first compound 8 µM) was 0.581 and the relative viability (NCI-H650; first compound 0.253 µM) was 0.528. The relative viability (NCI-H650; first compound 2.53 µM) was 0.523, the relative viability (NCI-H650; first compound 8 µM) was 0.42 and the relative viability (NCI-H661; first compound 0.253 µM) was 0.276. The relative viability (NCI-H661; first compound 0.8 µM) was 0.314, the relative viability (NCI-H661; first compound 2.53 µM) was 0.296 and the relative viability (NCI-H661; first compound 8 µM) was 0.249. For the same compound, the relative viability (NCI-H727; first compound 0.253 µM) was 0.613, the relative viability (NCI-H727; first compound 0.8 µM) was 0.53 and the relative viability (NCI-H727; first compound 2.53 µM) was 0.505. It also gave a relative viability (NCI-H727; first compound 8 µM) of 0.423, a relative viability (NCI-H838; first compound 0.253 µM) of 0.545 and a relative viability (NCI-H838; first compound 0.8 µM) of 0.541. It also gave a relative viability (NCI-H838; first compound 2.53 µM) of 0.689, a relative viability (NCI-H838; first compound 8 µM) of 0.468 and a relative viability (PC-3 [JPC-3]; first compound 0.253 µM) of 0.482. It also gave a relative viability (PC-3 [JPC-3]; first compound 0.8 µM) of 0.432, a relative viability (PC-3 [JPC-3]; first compound 2.53 µM) of 0.502 and a relative viability (PC-3 [JPC-3]; first compound 8 µM) of 0.511. For the same compound, the relative viability (RERF-LC-KJ; first compound 0.253 µM) was 0.403, the relative viability (RERF-LC-KJ; first compound 0.8 µM) was 0.463 and the relative viability (RERF-LC-KJ; first compound 2.53 µM) was 0.431. For the same compound, the relative viability (RERF-LC-KJ; first compound 8 µM) was 0.441, the relative viability (SK-LU-1; first compound 0.253 µM) was 0.539 and the relative viability (SK-LU-1; first compound 0.8 µM) was 0.595. For the same compound, the relative viability (SK-LU-1; first compound 2.53 µM) was 0.693, the relative viability (SK-LU-1; first compound 8 µM) was 0.472 and the relative viability (SK-MES-1; first compound 0.253 µM) was 0.556. The relative viability (SK-MES-1; first compound 0.8 µM) was 0.678, the relative viability (SK-MES-1; first compound 2.53 µM) was 0.678 and the relative viability (SK-MES-1; first compound 8 µM) was 0.773.
